Experiments:
Format in all cases: in vivo, Male Fischer 344 rats
[1] = system: azoxymethane-induced colon neoplasms in Fischer 344 rats; assay: Azoxymethane rat model, incidence of microadenomas, adenomas and cancers (Example 2); set-up: Tumor bearing rats, benign (microadenoma) / Tumor bearing rats, benign (adenoma) / Tumor bearing rats, malignant (cancers) / Tumor bearing rats, total: unit not given here; details: for Tumor bearing rats, total / Tumor bearing rats, benign (adenoma) / Tumor bearing rats, benign (microadenoma) / Tumor bearing rats, malignant (cancers): azoxymethane model as Example 1
Protocol: (§1) The control group diet is not supplemented at all. After 2 weeks, half of the rats in each group receive azoxymethane (15 mg/kg) or azoxymethane vehicle subcutaneously once a week for two weeks. […] After 28 weeks, the rats are sacrificed, the colons harvested and examined for neoplasms. None of the rats injected with azoxymethane vehicle develop tumors. Since it is believed that malignancies develop from adenomas, the total tumor bearing rat values are particularly enlightening as this represents the number of growths that are still in the adenoma stage and the number of growths that have continued to progress to cancers. Ursodiol reduced the number of growths from control by 50%, with a 100% reduction in those that progressed to cancers and a 33% reduction in the number of tumors that still remained as adenomas.
The procedure of Example 1 was followed except that the number of rats involved are as stated in the table below and aberrant crypt frequency was examined upon sacrifice of the rats. The incidence of microadenomas, adenomas, and cancers in the tested populations was recorded and appears in the table below.

[2] = system: azoxymethane-induced colon neoplasms in Fischer 344 rats; assay: Azoxymethane rat model, 7 diets, two study centers (Example 3)
Protocol: The control group diet is not supplemented at all. After 2 weeks, half of the rats in each group receive azoxymethane (15 mg/kg) or azoxymethane vehicle subcutaneously once a week for two weeks. […] After 28 weeks, the rats are sacrificed, the colons harvested and examined for neoplasms.

[3] = system: azoxymethane-induced colon neoplasms in Fischer 344 rats; assay: Azoxymethane-induced colon tumors in rats on supplemented AIN-76 diet (Example 1); details: for Tumor bearing rats, total, number / Tumor bearing rats, benign (adenoma), number / Tumor bearing rats, benign (adenoma), {%} / Tumor bearing rats, malignant (cancers), number / Tumor bearing rats, malignant (cancers), {%} / Tumor bearing rats, total, {%}: azoxymethane 15 mg/kg s.c., sacrifice after 28 weeks
Protocol: as §1

[4] = Study Center 2, standard diet + 0.2%
[5] = Study Center 2, standard diet + 0.4%
[6] = Study center 1, standard diet + 0.2%
[7] = Study center 1, standard diet + 0.4%
[8] = piroxicam diet, level not given
[9] = Study Center 2, standard diet + Piroxicam, level not given
[10] = Study center 1, standard diet + Piroxicam, level not given

Structure (SMILES) | Tumor bearing rats, benign (adenoma) ([1]; diet supplement 0.4%) | Tumor bearing rats, benign (microadenoma) ([1]; diet supplement 0.4%) | Tumor bearing rats, malignant (cancers) ([1]; diet supplement 0.4%) | Tumor bearing rats, benign [2, 4] | Tumor bearing rats, malignant [2, 4] | Tumor bearing rats, total [2, 4] | Tumor bearing rats, benign [2, 5] | Tumor bearing rats, malignant [2, 5] | Tumor bearing rats, total [2, 5] | Tumor bearing rats, benign [2, 6] | Tumor bearing rats, malignant [2, 6] | Tumor bearing rats, total [2, 6] | Tumor bearing rats, benign [2, 7] | Tumor bearing rats, malignant [2, 7] | Tumor bearing rats, total [2, 7] | Tumor bearing rats, benign (adenoma), number ([3]; diet supplement 0.4%) | Tumor bearing rats, benign (adenoma), {%} ([3]; diet supplement 0.4%) [%] | Tumor bearing rats, malignant (cancers), number ([3]; diet supplement 0.4%) | Tumor bearing rats, malignant (cancers), {%} ([3]; diet supplement 0.4%) | Tumor bearing rats, total, {%} ([3]; diet supplement 0.4%) [%] | also measured
C[C@H](CCC(=O)O)[C@H]1CC[C@H]2[C@@H]3[C@H](O)C[C@@H]4C[C@H](O)CC[C@]4(C)[C@H]3C[C@H](O)[C@]12C [Cholic Acid, Cholic acid] | 71 | 57 | 38 | 6 | 8 | 14 | 8 | 9 | 17 | 12 | 4 | 16 | 12 | 5 | 17 | 20 | 43 | 14 | 30% | 73 | Tumor bearing rats, total [1]: 166; Effect on number of adenomas present ([3]; 0.4% in diet, in words): increased the number of adenomas which were present; Effect on number of malignancies over control ([3]; 0.4% in diet, in words): increased the number of malignancies over control; Tumor bearing rats, total, number ([3]; control, diet not supplemented): 34
CN1C(C(=O)Nc2ccccn2)=C(O)c2ccccc2S1(=O)=O [Piroxicam] | – | – | – | – | – | – | – | – | – | – | – | – | – | – | – | – | – | – | – | – | Tumor bearing rats, benign (adenoma) [1, 8]: 42; Tumor bearing rats, benign (microadenoma) [1, 8]: 25; Tumor bearing rats, malignant (cancers) [1, 8]: 8; Tumor bearing rats, total [1, 8]: 75; Tumor bearing rats, benign [2, 9]: 8; Tumor bearing rats, malignant [2, 9]: 2; Tumor bearing rats, total [2, 9]: 10; Tumor bearing rats, benign [2, 10]: 8; Tumor bearing rats, malignant [2, 10]: 1; Tumor bearing rats, total [2, 10]: 9; Effect on adenomas and malignancies ([3]; 75 ppm in diet, in words, compared with ursodiol): reduced both adenomas and malignancies, but neither was reduced as dramatically as seen with ursodiol administration; Tumor bearing rats, benign (adenoma), number ([3]; diet supplement 75 ppm): 16; Tumor bearing rats, benign (adenoma), {%} ([3]; diet supplement 75 ppm): 29%; Tumor bearing rats, malignant (cancers), number ([3]; diet supplement 75 ppm): 3; Tumor bearing rats, malignant (cancers), {%} ([3]; diet supplement 75 ppm): 5%; Tumor bearing rats, total, number ([3]; diet supplement 75 ppm): 19; Tumor bearing rats, total, {%} ([3]; diet supplement 75 ppm): 34%
C[C@H](CCC(=O)O)[C@H]1CC[C@H]2[C@@H]3[C@@H](O)C[C@@H]4C[C@H](O)CC[C@]4(C)[C@H]3CC[C@]12C [Ursodiol, 3-α-7-β-dihydroxy-5-β-cholan-24-oic acid] | 27 | 23 | 0 | 6 | 4 | 10 | 6 | 0 | 6 | 8 | 5 | 13 | 4 | 0 | 4 | 10 | 22 | 0 {0} | 0 {0} % | 22 | Effect on incidence of malignancies and on number and size of non-cancerous or pre-cancerous growths ([1]; 0.4% in diet, in words): not only reduces the incidence of malignancies, but also reduces both the number and size of the non-cancerous or pre-cancerous growths; Tumor bearing rats, total ([1]; diet supplement 0.4%): 50; Effect in preventing the development of tumors at lower concentration ([2]; 0.2% in diet compared with 0.4%, in words): does not seem to be as strong as lower concentrations of ursodiol, i.e., 0.2%; Reduction of the number of growths from control ([3]; 0.4% in diet, total tumor bearing rats vs control): 50%; Reduction in growths that progressed to cancers ([3]; 0.4% in diet, vs control): 100%; Reduction in the number of tumors that still remained as adenomas ([3]; 0.4% in diet, vs control): 33%; Tumor bearing rats, total, number ([3]; diet supplement 0.4%): 10
